From patent US20240209001A1, “HETEROCYCLIC DERIVATIVES AS JANUS KINASE INHIBITORS” (CHIESI FARMACEUTICI S.P. A., priority 2021, published 2024)

Legend:
[1] = target: T1, JAK 1 (Homo sapiens (Human), UniProt P23458); test: Biochemical potency JAK1, TR-FRET LANCE Ultra kinase assay (examples 1a-10a); details: ATP corresponding to Km
Description: Pharmacological Activity of the Compounds of the Invention (1a-10a).
The objective of this study was to assess the activity of novel JAK inhibitors measuring the capability of compounds to inhibit JAK1 kinase activity in a biochemical time-resolved fluorescence resonance energy transfer (TR-FRET) LANCE assay. In LANCE Ultra kinase assay in the presence of JAK1 kinase and ATP (corresponding to Km), the ULight peptide substrate (LANCE Ulight-JAK-1 (Tyr1023) Peptide, Perkin Elmer, TRF0121) was phosphorylated. It was then captured by a Eu-anti-phospho-substrate antibody (LANCE Eu-W1024 Anti-phosphotyrosine (PT66), Perkin Elmer, AD0069), which brought the Eu-chelate donor and ULight acceptor dyes into close proximity. Upon excitation at 320 nm, the Eu-chelate transfers its energy to the ULight dye, resulting in a fluorescent light emission at 665 nm. Inhibitors were tested at 11 consecutive 5-fold dilutions starting from 30 μM (30 μM-[…]) in duplicate. Calculation of IC50 data, curves and QC analysis were made using Excel tools and GraphPadPrism software. QC criteria parameters: Z′≥0.5, Hill Slope range 0.5 to 5, S:B>2.

[2] = tested on: IL-2 induced phosphorylation of STAT5 (JAK1/JAK3 activity) in human peripheral blood mononuclear cells (PBMCs); test: Cell based assay PBMC (IL-2 stimulated pSTAT5); details: 0.5 h, rh IL-2, 30 min incubation, pSTAT5 ELISA, read-out: Cell Based assay PBMC (IL-2 stimulated pSTAT5), data displayed as pIC50 (converted)
Protocol: In addition to enzymatic potency, the effects of the inhibitors against JAK1/JAK3 activity in a cellular assay was characterized against IL-2 induced phosphorylation of STAT5 level in human peripheral blood mononuclear cells (PBMCs).
PBMC have been isolated from human healthy volunteers. Cells were seeded in wells and treated with compounds and rh IL-2. After 30 min incubation cells were lysed and pSTAT5 determined by PathScan phospho-stat5 (Tyr694) ELISA (Cell signaling). Inhibitors were tested at 11 consecutive 5-fold dilutions starting from 30 μM (30 μM-[…]) in duplicate. Calculation of IC50 data, curves and QC analysis were made using Excel tools and GraphPadPrism software. QC criteria parameters: Z′≥0.35, Hill Slope range 0.5 to 5, S:B>2.

[3] = target: TYK2 (Homo sapiens (Human), UniProt P29597); test: Biochemical potency on Tyk2, TR-FRET LANCE Ultra kinase assay (compounds 1-92); details: ATP at Km, read-out: Tyk2 inhibitory activity (pIC50 class) (converted)
Outline: (§1)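 TR-FRET (LANCE Ultra) phosphorylation of ULight-JAK-1 peptide, ATP at Km: JAK1/JAK2/JAK3/TYK2 peptide 30/50/20/10 nM, ATP 20/0.7/0.2/12 μM, enzyme 0.15/0.083/0.025/0.144 ng/μL. 11-point 5-fold series from 20 μM; 1.5 h RT, EDTA stop, Eu-anti-pTyr detection 1 h; IC50 by variable-slope fit.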

[4] = target: JAK 2 (Homo sapiens (Human), UniProt O60674); test: Biochemical potency on JAK2, TR-FRET LANCE Ultra kinase assay (compounds 1-92); details: ATP at Km, read-out: JAK2 inhibitory activity (pIC50 class) (converted)
Outline: as §1

[5] = target: T1, JAK 1; test: Biochemical potency on JAK1, TR-FRET LANCE Ultra kinase assay (compounds 1-92); details: ATP at Km, read-out: JAK1 inhibitory activity (pIC50 class) (converted)
Outline: as §1

[6] = target: JAK 3 (Homo sapiens (Human), UniProt P52333); test: Biochemical potency on JAK3, TR-FRET LANCE Ultra kinase assay (compounds 1-92); details: ATP at Km, read-out: JAK3 inhibitory activity (pIC50 class) (converted)
Outline: as §1

T1 sequence (P23458 whole entry): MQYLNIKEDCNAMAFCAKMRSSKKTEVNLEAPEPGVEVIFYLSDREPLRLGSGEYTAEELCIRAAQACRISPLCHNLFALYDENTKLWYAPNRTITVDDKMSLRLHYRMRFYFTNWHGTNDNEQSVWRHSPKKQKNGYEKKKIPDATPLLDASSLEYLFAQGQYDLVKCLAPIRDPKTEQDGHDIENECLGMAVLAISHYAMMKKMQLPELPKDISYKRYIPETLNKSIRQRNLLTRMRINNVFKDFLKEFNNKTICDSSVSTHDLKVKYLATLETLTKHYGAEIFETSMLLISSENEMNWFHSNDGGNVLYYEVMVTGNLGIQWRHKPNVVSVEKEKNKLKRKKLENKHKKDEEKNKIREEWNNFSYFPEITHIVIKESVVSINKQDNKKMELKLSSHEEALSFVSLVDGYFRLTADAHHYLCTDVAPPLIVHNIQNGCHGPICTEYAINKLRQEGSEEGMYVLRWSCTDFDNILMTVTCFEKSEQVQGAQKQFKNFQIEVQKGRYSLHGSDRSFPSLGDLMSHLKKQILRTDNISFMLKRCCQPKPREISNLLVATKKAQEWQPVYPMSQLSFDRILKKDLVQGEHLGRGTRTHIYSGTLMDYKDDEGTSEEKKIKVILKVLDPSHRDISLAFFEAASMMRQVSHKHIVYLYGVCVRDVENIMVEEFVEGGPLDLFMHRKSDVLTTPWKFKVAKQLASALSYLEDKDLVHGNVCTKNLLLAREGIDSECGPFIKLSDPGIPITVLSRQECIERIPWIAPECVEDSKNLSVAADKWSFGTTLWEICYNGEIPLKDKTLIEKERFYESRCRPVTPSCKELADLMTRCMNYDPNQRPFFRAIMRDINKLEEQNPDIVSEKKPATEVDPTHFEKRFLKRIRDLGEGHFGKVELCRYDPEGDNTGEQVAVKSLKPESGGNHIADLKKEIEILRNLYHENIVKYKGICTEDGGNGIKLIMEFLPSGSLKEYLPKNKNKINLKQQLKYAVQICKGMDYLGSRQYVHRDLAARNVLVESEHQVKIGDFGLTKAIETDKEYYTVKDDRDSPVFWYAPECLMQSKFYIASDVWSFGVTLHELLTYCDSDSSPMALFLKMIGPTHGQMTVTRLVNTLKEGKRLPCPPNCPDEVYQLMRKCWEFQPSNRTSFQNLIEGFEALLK
Sequence of JAK 3 (P52333 whole entry): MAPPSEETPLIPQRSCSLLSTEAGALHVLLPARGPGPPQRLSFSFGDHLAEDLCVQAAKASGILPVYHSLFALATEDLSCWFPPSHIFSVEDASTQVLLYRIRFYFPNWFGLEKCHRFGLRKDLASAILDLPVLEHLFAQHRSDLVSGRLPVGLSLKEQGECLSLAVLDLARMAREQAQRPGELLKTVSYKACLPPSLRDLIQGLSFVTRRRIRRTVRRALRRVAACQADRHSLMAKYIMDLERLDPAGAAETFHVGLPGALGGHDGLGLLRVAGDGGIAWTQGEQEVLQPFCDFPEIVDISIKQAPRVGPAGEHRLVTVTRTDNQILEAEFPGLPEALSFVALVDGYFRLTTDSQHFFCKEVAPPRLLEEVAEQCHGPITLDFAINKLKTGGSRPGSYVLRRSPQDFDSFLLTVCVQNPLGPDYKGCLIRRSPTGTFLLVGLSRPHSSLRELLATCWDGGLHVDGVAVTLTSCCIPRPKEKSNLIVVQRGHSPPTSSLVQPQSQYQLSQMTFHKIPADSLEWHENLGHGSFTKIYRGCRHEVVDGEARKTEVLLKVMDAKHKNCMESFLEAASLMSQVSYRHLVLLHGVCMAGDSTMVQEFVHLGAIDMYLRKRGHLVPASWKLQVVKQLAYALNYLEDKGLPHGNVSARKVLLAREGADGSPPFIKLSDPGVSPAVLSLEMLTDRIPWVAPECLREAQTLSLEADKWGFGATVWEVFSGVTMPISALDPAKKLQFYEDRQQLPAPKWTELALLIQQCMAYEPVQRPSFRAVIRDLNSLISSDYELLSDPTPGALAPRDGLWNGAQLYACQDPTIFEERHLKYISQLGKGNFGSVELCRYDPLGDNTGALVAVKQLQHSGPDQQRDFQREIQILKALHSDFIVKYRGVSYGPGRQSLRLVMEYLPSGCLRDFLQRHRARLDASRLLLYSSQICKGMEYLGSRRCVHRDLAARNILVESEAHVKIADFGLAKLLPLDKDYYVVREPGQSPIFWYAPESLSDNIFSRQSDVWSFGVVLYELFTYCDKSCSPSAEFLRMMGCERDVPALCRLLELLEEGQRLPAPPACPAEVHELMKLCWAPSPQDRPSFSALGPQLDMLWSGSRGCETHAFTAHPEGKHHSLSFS
Sequence of JAK 2 (O60674 whole entry): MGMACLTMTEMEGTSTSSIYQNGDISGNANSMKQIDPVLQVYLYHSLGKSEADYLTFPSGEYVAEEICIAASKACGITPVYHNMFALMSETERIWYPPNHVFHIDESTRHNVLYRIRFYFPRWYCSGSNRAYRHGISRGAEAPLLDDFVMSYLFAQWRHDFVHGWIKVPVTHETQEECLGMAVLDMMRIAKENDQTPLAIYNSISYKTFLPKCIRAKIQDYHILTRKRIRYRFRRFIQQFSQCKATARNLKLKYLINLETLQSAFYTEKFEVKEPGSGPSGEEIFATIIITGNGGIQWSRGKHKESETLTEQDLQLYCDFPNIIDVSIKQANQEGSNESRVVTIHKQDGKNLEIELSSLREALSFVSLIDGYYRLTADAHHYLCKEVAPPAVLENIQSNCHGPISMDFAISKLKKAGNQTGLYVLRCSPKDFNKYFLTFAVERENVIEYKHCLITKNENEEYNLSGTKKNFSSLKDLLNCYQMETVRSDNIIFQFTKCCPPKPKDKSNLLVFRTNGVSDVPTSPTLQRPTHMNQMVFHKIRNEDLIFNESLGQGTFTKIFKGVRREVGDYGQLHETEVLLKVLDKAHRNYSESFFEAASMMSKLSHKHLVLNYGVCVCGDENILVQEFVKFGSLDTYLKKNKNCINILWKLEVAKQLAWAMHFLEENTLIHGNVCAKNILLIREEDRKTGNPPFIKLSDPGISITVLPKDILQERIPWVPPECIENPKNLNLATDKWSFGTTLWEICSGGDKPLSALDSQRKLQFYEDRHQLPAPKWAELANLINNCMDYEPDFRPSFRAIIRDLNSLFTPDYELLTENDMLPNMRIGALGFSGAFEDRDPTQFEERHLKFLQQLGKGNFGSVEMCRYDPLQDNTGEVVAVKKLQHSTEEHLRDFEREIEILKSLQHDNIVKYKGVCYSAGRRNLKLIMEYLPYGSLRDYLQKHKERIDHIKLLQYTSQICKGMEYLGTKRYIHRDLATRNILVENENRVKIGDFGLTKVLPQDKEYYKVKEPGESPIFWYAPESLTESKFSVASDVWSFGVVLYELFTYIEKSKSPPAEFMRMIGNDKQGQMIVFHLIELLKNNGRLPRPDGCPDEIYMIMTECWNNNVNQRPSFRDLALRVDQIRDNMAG
Sequence of TYK2 (P29597 whole entry): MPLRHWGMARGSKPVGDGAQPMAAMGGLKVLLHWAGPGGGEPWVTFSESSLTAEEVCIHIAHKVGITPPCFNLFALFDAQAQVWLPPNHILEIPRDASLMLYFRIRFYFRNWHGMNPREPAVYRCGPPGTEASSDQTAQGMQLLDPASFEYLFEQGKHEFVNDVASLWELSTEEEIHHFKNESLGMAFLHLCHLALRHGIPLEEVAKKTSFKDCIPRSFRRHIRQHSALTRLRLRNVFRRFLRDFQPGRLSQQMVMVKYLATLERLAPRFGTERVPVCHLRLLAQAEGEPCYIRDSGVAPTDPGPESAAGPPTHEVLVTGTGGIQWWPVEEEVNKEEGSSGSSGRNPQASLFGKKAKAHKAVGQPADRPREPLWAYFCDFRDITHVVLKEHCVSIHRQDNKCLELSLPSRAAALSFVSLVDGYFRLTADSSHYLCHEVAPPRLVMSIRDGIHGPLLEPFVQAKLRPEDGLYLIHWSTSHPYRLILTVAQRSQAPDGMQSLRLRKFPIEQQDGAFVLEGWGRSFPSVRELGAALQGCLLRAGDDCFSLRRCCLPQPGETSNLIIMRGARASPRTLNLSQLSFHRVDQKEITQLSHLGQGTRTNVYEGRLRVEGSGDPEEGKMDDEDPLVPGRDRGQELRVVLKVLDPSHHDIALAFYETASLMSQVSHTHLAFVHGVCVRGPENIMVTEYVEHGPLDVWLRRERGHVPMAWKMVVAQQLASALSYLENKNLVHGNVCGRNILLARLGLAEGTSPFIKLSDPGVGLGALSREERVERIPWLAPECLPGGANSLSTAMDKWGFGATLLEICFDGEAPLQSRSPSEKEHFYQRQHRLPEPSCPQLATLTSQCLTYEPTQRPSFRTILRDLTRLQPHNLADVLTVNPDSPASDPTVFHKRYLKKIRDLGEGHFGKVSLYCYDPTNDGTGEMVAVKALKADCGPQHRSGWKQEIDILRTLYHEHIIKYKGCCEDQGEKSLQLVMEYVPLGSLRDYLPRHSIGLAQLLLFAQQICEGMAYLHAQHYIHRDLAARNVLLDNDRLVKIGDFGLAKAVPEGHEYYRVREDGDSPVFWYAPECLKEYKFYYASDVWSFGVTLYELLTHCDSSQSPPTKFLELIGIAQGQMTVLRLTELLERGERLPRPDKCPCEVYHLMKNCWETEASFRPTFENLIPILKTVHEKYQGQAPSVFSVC

Biochemical Potency JAK 1 (pIC50) [1]	IC50 [3]	IC50 [4]	IC50 [5]	IC50 [6]	SMILES	IC50 [2]
6.7					Cc1nn(Cc2ccc(Cl)cc2F)c2cc(-c3cnc4cccnn34)cnc12 [Example 8a, 1-(4-chloro-2-fluorobenzyl)-6-(imidazo[1,2-b]pyridazin-3-yl)-3-methyl-1H-pyrazolo[4,3-b]pyridine]	794 nM
7.8					Cc1nn(-c2cc(Cl)ccc2OC(F)F)c2cc(-c3cnn4cccnc34)cnc12 [Example 9a, 1-(5-chloro-2-(difluoromethoxy)phenyl)-3-methyl-6-(pyrazolo[1,5-a]pyrimidin-3-yl)-1H-pyrazolo[4,3-b]pyridine]	50.1 nM
6.0					Cc1nn(C2CCCN(C(=O)CC#N)C2)c2cc(-c3cnn4cccnc34)cnc12 (stereo not drawn) [Example 10a, 3-(3-(3-methyl-6-(pyrazolo[1,5-a]pyrimidin-3-yl)-1H-pyrazolo[4,3-b]pyridin-1-yl)piperidin-1-yl)-3-oxopropanenitrile]	6310 nM
	> 50.1 nM	> 50.1 nM	> 50.1 nM	> 50.1 nM	COc1cc(CN)ccc1-n1nc(C)c2cnc(-c3cnn4cccnc34)cc21 [Example 67, (3-methoxy-4-(3-methyl-6-(pyrazolo[1,5-a]pyrimidin-3-yl)-1H-pyrazolo[4,3-c]pyridin-1-yl)phenyl)methanamine]	
	5.01 to 50.1 nM	≤ 5.01 nM	≤ 5.01 nM	≤ 5.01 nM	COc1cc(NS(=O)(=O)C2COC2)ccc1-n1nc(C)c2cnc(-c3cnn4cccnc34)cc21 [Example 8, N-(3-methoxy-4-(3-methyl-6-(pyrazolo[1,5-a]pyrimidin-3-yl)-1H-pyrazolo[4,3-c]pyridin-1-yl)phenyl)oxetane-3-sulfonamide]	
	≤ 5.01 nM	≤ 5.01 nM	≤ 5.01 nM	≤ 5.01 nM	COc1cc(NS(C)(=O)=O)ccc1-n1nc(NCCN2C3CCC2COC3)c2cnc(Nc3ncc[nH]c3=O)cc21 [Example 90, N-(4-(3-((2-(3-oxa-8-azabicyclo[3.2.1]octan-8-yl)ethyl)amino)-6-((3-oxo-3,4-dihydropyrazin-2-yl)amino)-1H-pyrazolo[4,3-c]pyridin-1-yl)-3-methoxyphenyl)methanesulfonamide]	

More lines, now with the values behind:

SMILES	Biochemical Potency JAK 1 (pIC50) [1]	IC50 [3]	IC50 [4]	IC50 [5]	IC50 [6]	IC50 [2]
COC(=O)c1nn(-c2cc(Cl)ccc2OC(F)F)c2cc(-c3cnn4cccnc34)cnc12 [Example 3a, methyl 1-(5-chloro-2-(difluoromethoxy)phenyl)-6-(pyrazolo[1,5-a]pyrimidin-3-yl)-1H-pyrazolo[4,3-b]pyridine-3-carboxylate]	8.1					
CN(C)C(=O)Cn1nc(-c2cc(Cl)ccc2OC(F)F)c2cc(-c3cnn4cccnc34)cnc21 [Example 2a, 2-(3-(5-chloro-2-(difluoromethoxy)phenyl)-5-(pyrazolo[1,5-a]pyrimidin-3-yl)-1H-pyrazolo[3,4-b]pyridin-1-yl)-N,N-dimethylacetamide]	7.3					631 nM
CN(C)C(=O)Cc1nn(-c2cc(Cl)ccc2OC(F)F)c2cc(-c3cnn4cccnc34)cnc12 [Example 4a, 2-(1-(5-chloro-2-(difluoromethoxy)phenyl)-6-(pyrazolo[1,5-a]pyrimidin-3-yl)-1H-pyrazolo[4,3-b]pyridin-3-yl)-N,N-dimethylacetamide]	7.8					316 nM
Cc1nn(-c2cc(Cl)ccc2OC(F)F)c2cc(-c3cnn4cccnc34)ncc12 [Example 7a, 1-(5-chloro-2-(difluoromethoxy)phenyl)-3-methyl-6-(pyrazolo[1,5-a]pyrimidin-3-yl)-1H-pyrazolo[4,3-c]pyridine]	8.5					39.8 nM
O=C(O)Cc1nn(-c2cc(Cl)ccc2OC(F)F)c2cc(-c3cnn4cccnc34)cnc12 [Example 5a, 2-(1-(5-chloro-2-(difluoromethoxy)phenyl)-6-(pyrazolo[1,5-a]pyrimidin-3-yl)-1H-pyrazolo[4,3-b]pyridin-3-yl)acetic acid]	7.7					6310 nM
OCc1nn(-c2cc(Cl)ccc2OC(F)F)c2cc(-c3cnn4cccnc34)cnc12 [Example 1a, (1-(5-chloro-2-(difluoromethoxy)phenyl)-6-(pyrazolo[1,5-a]pyrimidin-3-yl)-1H-pyrazolo[4,3-b]pyridin-3-yl)methanol]	8.1					50.1 nM
Cc1nn(-c2cc(Cl)ccc2OC(F)F)c2cc(-c3cnc4cccnn34)ncc12 [Example 6a, 1-(5-chloro-2-(difluoromethoxy)phenyl)-6-(imidazo[1,2-b]pyridazin-3-yl)-3-methyl-1H-pyrazolo[4,3-c]pyridine]	8.4					
